Results taken from patent US20090281278A1, “MODIFIED MOLECULES WHICH PROMOTE HEMATOPOIESIS” (priority 2006, published 2009).
Entries after “also recorded” stand apart in the source; their conditions may differ. Bridges are numbered along the chain shown (N, C = ends). Where no end group is shown, it is not given here. [ ]: non-standard residue; d: D form. 1Nal = N[C@@H](Cc1cccc2ccccc12)C(=O)O

System: TF-1 cells
Experiment: TF-1 proliferation assay (MTT/MTS, number of viable cells)
Format: cell-based, human
Settings: for efficacy and potency (EPO mimetic activity) compared with reference peptides: TF-1 proliferation, normalized plots
Method: An experiment was performed in a standard TF-1 cell assay as recommended by the European Pharmacopoe for the determination of EPO-like activity in vitro (please also see below). Basically, TF-1 cells (their proliferation being dependent from the presence of EPO-like activity) are cultured in the presence various concentrations of EPO or EPO-mimetic substances. The resulting cell numbers are quantified using colorimetric MTT-assay and photometric measurements.
TF1 cells in logarithmic growth phase (2×10^5-1×10^6 cells/ml grown in RPMI with 20% fetal calf serum (FCS) and 0.5 ng/ml IL-3) were counted, and the number of cells needed to perform an assay were centrifuged (5 min. 1500 rpm) and resuspended in RPMI with 5% FCS without IL-3 at 300 000 cells/ml. Cells were precultured in this (starvation) medium without IL-3 for 48 hours. Before starting the assay the cells were counted again.
Shortly before starting the assay stock solutions of peptides and EPO were prepared. Peptides were weighed and dissolved in RPMI with 5% FCS up to a concentration of 1 mM, 467 μM or 200 μM. EPO stock solutions were 10 nM or 20 nM. 292 μl of these stock solutions were pipetted into one well of a 96 well culture plate—one plate was taken for each substance to be tested. Two hundred μl of RPMI with 5% FCS were pipetted into seventeen other wells in each plate. Ninety-two μl of stock solution were pipetted into a well containing 200 μl medium. The contents were mixed, and 92 μl from this well was transferred to the next, and so forth. This way a dilution series (18 dilutions) of each substance was prepared such that in each consecutive well the concentration was 1:√10 of the concentration in the well before that. From each well 3×50 μl was transferred to three empty wells. This way each concentration of substance was measured in quadruplicate. Note that the uppermost and lowermost line of wells of each plate was left void.
Pre-treated (starved) cells were centrifuged (5 min. 1500 rpm) and resuspended in RPMI with 5% FCS at a concentration of 200 000 cells per ml. […]
To measure the number of live cells per well, ready-to-use […] (Promega, CellTiter 96 Aqueous One Solution Cell Proliferation Assay) was thawed in a 37° C. water bath. […] Twenty-five μl of a 10% SDS solution was added, and plates were measured in an ELISA reader (Genios, Tecan). […]
For optimal results TF-1 cells should be cultured for two days in the absence of any cytokine (starved) before starting the assay. Three days after starting the assay, cell proliferation is measured indirectly by assaying the number of viable cells.
A tetrazolium reagent, called MTS, is added which is reduced to coloured formazan. […] The amount of formazan is measured spectrophotometrically. […]

Ac-GGTYSCHFGKLT-Na1-VCKKQRG-Am (Ac-GGTYSCHFGKLT[1Nal]VCKKQRG-NH2; cysteine pairing not given here) [BB68]
efficacy and potency (EPO mimetic activity) compared with reference peptides: even more effective than EMP1 and BB49; also recorded: improved effect

AGEM40—HES: peptide (AGEM40) HESylated according to the supravalence principle (Ac-CGGTYSCHFGKLT[1Nal]VCKKQRGGGTYSCHFGKLT[1Nal]VCKKQRG-NH2; disulfide 7-16, 27-36 (inferred); not fully specified (residue 1); also: HES (hydroxyethyl starch) conjugate, maleimide-linked)
efficacy and potency (EPO mimetic activity) compared with reference peptides: highly effective and potent

GGTYSCHFGPLTWVCKPQGG [EMP1, reference compound]
agonist behaviour (maximal response compared with EPO) (peptides in their monomeric form): partial agonists

Ac-GGTYSCHFGKLTWVCKKQGG (cysteine pairing not given here) [BB49]
efficacy and potency (EPO mimetic activity) compared with reference peptides: efficacy and potency in the same range as EMP1
